# Data as given in paper PMC6366416, “Synthesis and in vitro anticancer activity of certain novel 1-(2-methyl-6-arylpyridin-3-yl)-3-phenylureas as apoptosis-inducing agents” (Journal of Enzyme Inhibition and Medicinal Chemistry, 2019).
# Columns and labels:
# A498 = experiment: NCI one-dose SRB growth inhibition; type: cell-based; settings: Homo sapiens, Renal Cancer, 48 h, read-out: GI% A498
# Method: (§1) The antitumor assay was performed according to the protocol of the Drug Evaluation Branch, NCI, Bethesda[24–26]. A 48 h drug exposure protocol was adopted, and sulforhodamine B (SRB) assay[27] was utilized to assess the cell growth and viability, as reported earlier[17]^,[28].
# (§2) The structures of all the newly synthesized pyridines 5a–l were submitted to the National Cancer Institute (NCI) Developmental Therapeutic Program (www.dtp.nci.nih.gov). […] Nine different types of cancer were tested in this assay: colon, ovarian, prostate, leukemia, melanoma, CNS, renal, breast and lung cancers. A 48 h drug exposure protocol was adopted, and sulforhodamine B (SRB) assay[27] was utilized to assess the cell growth and viability.
# BT-549 = experiment: NCI one-dose SRB growth inhibition; type: cell-based; settings: Homo sapiens, Breast Cancer, 48 h, read-out: GI% BT-549
# Method: as §1, §2
# COLO 205 = experiment: NCI one-dose SRB growth inhibition; type: cell-based; settings: Homo sapiens, Colon Cancer, 48 h, read-out: GI% COLO 205
# Method: as §1, §2
# DU-145 = experiment: NCI one-dose SRB growth inhibition; type: cell-based; settings: Homo sapiens, Prostate, 48 h, read-out: GI% DU-145
# Method: as §1, §2
# HCT-116 = experiment: NCI one-dose SRB growth inhibition; type: cell-based; settings: Homo sapiens, HCT-116, 48 h, Colon Cancer, read-out: GI% HCT-116
# Method: as §1, §2
# HCT-15 = experiment: NCI one-dose SRB growth inhibition; type: cell-based; settings: Homo sapiens, HCT-15, 48 h, Colon Cancer, read-out: GI% HCT-15
# Method: as §1, §2
# HL-60(TB) = experiment: NCI one-dose SRB growth inhibition; type: cell-based; settings: Homo sapiens, Leukemia, 48 h, read-out: GI% HL-60(TB)
# Method: as §1, §2
# IGROV1 = experiment: NCI one-dose SRB growth inhibition; type: cell-based; settings: Homo sapiens, IGROV-1, Ovarian Cancer, 48 h, read-out: GI% IGROV1
# Method: as §1, §2
# KM12 = experiment: NCI one-dose SRB growth inhibition; type: cell-based; settings: Homo sapiens, Colon Cancer, 48 h, read-out: GI% KM12
# Method: as §1, §2
# LOX IMVI = experiment: NCI one-dose SRB growth inhibition; type: cell-based; settings: Homo sapiens, Melanoma, 48 h, read-out: GI% LOX IMVI
# Method: as §1, §2
# MCF7 = experiment: NCI one-dose SRB growth inhibition; type: cell-based; settings: Homo sapiens, Breast Cancer, 48 h, read-out: GI% MCF7
# Method: as §1, §2
# MDA-MB-231 = experiment: NCI one-dose SRB growth inhibition; type: cell-based; settings: Homo sapiens, Breast Cancer, 48 h, read-out: GI% MDA-MB-231
# Method: as §1, §2
# MDA-MB-435 = experiment: NCI one-dose SRB growth inhibition; type: cell-based; settings: Homo sapiens, Melanoma, 48 h, read-out: GI% MDA-MB-435
# Method: as §1, §2
# MOLT-4 = experiment: NCI one-dose SRB growth inhibition; type: cell-based; settings: Homo sapiens, Leukemia, 48 h, read-out: GI% MOLT-4
# Method: as §1, §2
# NCI-H322M = experiment: NCI one-dose SRB growth inhibition; type: cell-based; settings: Homo sapiens, Non-Small Cell Lung Cancer, 48 h, read-out: GI% NCI-H322M
# Method: as §1, §2
# NCI-H522 = experiment: NCI one-dose SRB growth inhibition; type: cell-based; settings: Homo sapiens, NCI-H522, 48 h, Non-Small Cell Lung Cancer, read-out: GI% NCI-H522
# Method: as §1, §2
# SF-539 = experiment: NCI one-dose SRB growth inhibition; type: cell-based; settings: Homo sapiens, CNS Cancer, 48 h, read-out: GI% SF-539
# Method: as §1, §2
# SK-MEL-5 = experiment: NCI one-dose SRB growth inhibition; type: cell-based; settings: Homo sapiens, Melanoma, 48 h, read-out: GI% SK-MEL-5
# Method: as §1, §2
# SK-OV-3 = experiment: NCI one-dose SRB growth inhibition; type: cell-based; settings: Homo sapiens, Ovarian Cancer, 48 h, read-out: GI% SK-OV-3
# Method: as §1, §2
# SN12C = experiment: NCI one-dose SRB growth inhibition; type: cell-based; settings: Homo sapiens, Renal Cancer, 48 h, read-out: GI% SN12C
# Method: as §1, §2
# SW-620 = experiment: NCI one-dose SRB growth inhibition; type: cell-based; settings: Homo sapiens, Colon Cancer, 48 h, read-out: GI% SW-620
# Method: as §1, §2
# U251 = experiment: NCI one-dose SRB growth inhibition; type: cell-based; settings: Homo sapiens, U-251, CNS Cancer, 48 h, read-out: GI% U251
# Method: as §1, §2
# UACC-62 = experiment: NCI one-dose SRB growth inhibition; type: cell-based; settings: Homo sapiens, UACC-62, 48 h, Melanoma, read-out: GI% UACC-62
# Method: as §1, §2
# [1] = tested on: 60 cancer cell lines (NCI, USA); experiment: NCI one-dose SRB assay, whole panel; type: cell-based, human; settings: 10 μM; cell lines with GI% higher than 10%
# Method: as §1, §2
# A549 cell line = experiment: MTT anti-proliferative assay; type: cell-based; settings: Homo sapiens, 48 h of incubation, mean ± SD of three experiments
# Method: (§3) A549 (non-small cell lung cancer cell line) and HCT-116 (human colon cancer cell line), were obtained from American Type Culture Collection (Manassas, VA, USA). The cells were maintained in Dulbecco’s Modified Eagle’s Medium (DMEM) (Sigma-Aldrich, St. Louis, MO), and supplemented with 10% heat-inactivated FBS (Hyclone), 10 μg/mL of insulin (Manufacturer, Sigma, St. Louis, MO, USA), and 1% penicillin-streptomycin. MTT assay[29] was adopted to assess the in vitro antitumor activity of the newly synthesized pyridines 5a–l according to the reported procedures, using Doxorubicin as a standard treatment. Experimental conditions were tested using three replicates (three wells of the 96-well plate per experimental condition) and all experiments were carried out in triplicates. IC50 values were calculated by the use of the equation for Boltzman sigmoidal concentration–response curve using the nonlinear regression fitting models by Graph Pad, Prism version 5 (GraphPad Software Inc., La Jolla, CA).
# (§4) All newly synthesized pyridines 5a–l were examined for their anti-proliferative activity towards two cancer cell lines: non-small cell lung cancer A549 cell line and colon cancer HCT-116 cell line. The MTT colorimetric assay was adopted to assess the anti-proliferative activity as described by Mosmann[29]. Doxorubicin was used as a control in this assay.
# HCT-116 cell line = experiment: MTT anti-proliferative assay; type: cell-based; settings: Homo sapiens, 48 h of incubation, mean ± SD of three experiments
# Method: as §3, §4
# WI-38 cell line = experiment: MTT cytotoxicity towards non-tumorigenic cells; type: cell-based, human; settings: for IC50: WI-38, MTT, non-tumorigenic human lung fibroblast, mean ± SD of three experiments; for S. I. WI-38/A549: selectivity index, IC50 WI-38 / IC50 A549
# Method: The cytotoxic activity of all synthesized pyridines 5a–l were assessed against non-tumorigenic human lung fibroblast WI-38 cell line to investigate their safety, using the MTT colorimetric assay.
SMILES,inhibition at 10 µM (A498) [%],inhibition at 10 µM (BT-549) [%],inhibition at 10 µM (COLO 205) [%],inhibition at 10 µM (DU-145) [%],inhibition at 10 µM (HCT-116) [%],inhibition at 10 µM (HCT-15) [%],inhibition at 10 µM (HL-60(TB)) [%],inhibition at 10 µM (IGROV1) [%],inhibition at 10 µM (KM12) [%],inhibition at 10 µM (LOX IMVI) [%],inhibition at 10 µM (MCF7) [%],inhibition at 10 µM (MDA-MB-231) [%],inhibition at 10 µM (MDA-MB-435) [%],inhibition at 10 µM (MOLT-4) [%],inhibition at 10 µM (NCI-H322M) [%],inhibition at 10 µM (NCI-H522) [%],inhibition at 10 µM (SF-539) [%],inhibition at 10 µM (SK-MEL-5) [%],inhibition at 10 µM (SK-OV-3) [%],inhibition at 10 µM (SN12C) [%],further results
"Cc1nc(-c2ccc(Cl)cc2)ccc1NC(=O)Nc1cccc(C(F)(F)F)c1 [Compound 5e, 1-(6-(4-Chlorophenyl)-2-methylpyridin-3-yl)-3-(3-(trifluoromethyl)phenyl)urea]",< 10,< 10,< 10,< 10,26,18,21,< 10,< 10,< 10,20,< 10,< 10,12,< 10,48,< 10,< 10,< 10,< 10,inhibition at 10 µM (SW-620): 11%; inhibition at 10 µM (U251): 24%; inhibition at 10 µM (UACC-62): < 10%; Sensitive cell lines no. [1]: 17; IC50 (A549 cell line): 11.9 ± 0.92 µM; IC50 (HCT-116 cell line): 7.05 ± 0.72 µM; IC50 (WI-38 cell line): 130 ± 9.22 µM; S. I. WI-38/A549 (WI-38 cell line): 11.0
"COc1ccc(NC(=O)Nc2ccc(-c3ccc(Cl)cc3)nc2C)cc1 [Compound 5f, 1-(6-(4-Chlorophenyl)-2-methylpyridin-3-yl)-3-(4-methoxyphenyl) urea]",< 10,< 10,< 10,< 10,21,< 10,12,< 10,< 10,21,23,< 10,< 10,14,< 10,40,< 10,38,< 10,< 10,inhibition at 10 µM (SW-620): < 10%; inhibition at 10 µM (U251): < 10%; inhibition at 10 µM (UACC-62): 27%; Sensitive cell lines no. [1]: 19; IC50 (A549 cell line): 7.9 ± 0.54 µM; IC50 (HCT-116 cell line): 12.6 ± 1.08 µM; IC50 (WI-38 cell line): 116 ± 9.61 µM; S. I. WI-38/A549 (WI-38 cell line): 14.7
"Cc1nc(-c2cccs2)ccc1NC(=O)Nc1ccc(F)cc1 [Compound 5h, 1-(4-Fluorophenyl)-3-(2-methyl-6-(thiophen-2-yl)pyridin-3-yl)urea]",< 10,< 10,< 10,< 10,22,26,15,< 10,18,< 10,22,< 10,< 10,29,< 10,39,< 10,12,< 10,< 10,inhibition at 10 µM (SW-620): < 10%; inhibition at 10 µM (U251): < 10%; inhibition at 10 µM (UACC-62): 18%; Sensitive cell lines no. [1]: 23; IC50 (A549 cell line): 10.6 ± 0.86 µM; IC50 (HCT-116 cell line): 8.25 ± 0.84 µM; IC50 (WI-38 cell line): 143 ± 8.38 µM; S. I. WI-38/A549 (WI-38 cell line): 13.4
"CCOC(=O)c1ccc(NC(=O)Nc2ccc(-c3cccs3)nc2C)cc1 [Compound 5j, Ethyl 4-(3-(2-methyl-6-(thiophen-2-yl)pyridin-3-yl)ureido)benzoate]",< 10,15,< 10,< 10,27,30,10,< 10,18,10,21,< 10,< 10,44,17,52,< 10,22,< 10,< 10,inhibition at 10 µM (SW-620): < 10%; inhibition at 10 µM (U251): 21%; inhibition at 10 µM (UACC-62): < 10%; Sensitive cell lines no. [1]: 24; IC50 (A549 cell line): 8.04 ± 0.59 µM; IC50 (HCT-116 cell line): 9.38 ± 0.67 µM; IC50 (WI-38 cell line): 107 ± 7.02 µM; S. I. WI-38/A549 (WI-38 cell line): 13.3
